Reference: ChEMBL document CHEMBL4024706 (Eur J Med Chem, 2017)

What was measured:
[1] = target: Tyrosine-protein kinase BTK (Homo sapiens, UniProt Q06187); experiment: Inhibition of full length recombinant human N-terminal His tagged […] expressed in baculovirus infected Sf9 insect cells using poly (Glu,Tyr)4:1 as substrate pretreated for 60 mins followed by substrate addition after 1 hr by ADP-Glo luminescence assay
[2] = target: Activin receptor type-1B (Homo sapiens) (UniProt P36896); experiment: Inhibition of wild-type human ACVR1B (S187 to I505 residues) expressed in bacterial expression system assessed as residual activity at 1 uM by Kinomescan method relative to control
[3] = target: Activin receptor type-2A (Homo sapiens) (UniProt P27037); experiment: Inhibition of wild-type human ACVR2A (V171 to T499 residues) expressed in bacterial expression system assessed as residual activity at 1 uM by Kinomescan method relative to control
[4] = target: Calcium/calmodulin-dependent protein kinase type 1D (Homo sapiens) (UniProt Q8IU85); experiment: Inhibition of wild-type human partial length CAMK1D (M1 to K299 residues) expressed in bacterial expression system assessed as residual activity at 1 uM by Kinomescan method relative to control
[5] = target: Calcium/calmodulin-dependent protein kinase type II subunit beta (Homo sapiens) (UniProt Q13554); experiment: Inhibition of wild-type human partial length CAMK2B (M1 to Q380 residues) expressed in bacterial expression system assessed as residual activity at 1 uM by Kinomescan method relative to control
[6] = target: Citron Rho-interacting kinase (Homo sapiens) (UniProt O14578); experiment: Inhibition of wild-type human partial length CIT (M68 to E432 residues) expressed in bacterial expression system assessed as residual activity at 1 uM by Kinomescan method relative to control
[7] = target: Dual specificity protein kinase CLK4 (Homo sapiens) (UniProt Q9HAZ1); experiment: Inhibition of wild-type human partial length CLK4 (R135 to K481 residues) expressed in bacterial expression system assessed as residual activity at 1 uM by Kinomescan method relative to control
[8] = target: Mitogen-activated protein kinase 7 (Homo sapiens) (UniProt Q13164); experiment: Inhibition of wild-type human partial length ERK5 (M1 to A409 residues) expressed in bacterial expression system assessed as residual activity at 1 uM by Kinomescan method relative to control
[9] = target: Rhodopsin kinase GRK7 (Homo sapiens) (UniProt Q8WTQ7); experiment: Inhibition of wild-type human full length GRK7 (M1 to L553 residues) expressed in mammalian expression system assessed as residual activity at 1 uM by Kinomescan method relative to control
[10] = target: Serine/threonine-protein kinase ICK (Homo sapiens) (UniProt Q9UPZ9); experiment: Inhibition of wild-type human partial length ICK (M1 to P314 residues) expressed in mammalian expression system assessed as residual activity at 1 uM by Kinomescan method relative to control
[11] = target: Inhibitor of nuclear factor kappa-B kinase subunit alpha (Homo sapiens) (UniProt O15111); experiment: Inhibition of wild-type human full length IKK-alpha (M1 to E745 residues) expressed in mammalian expression system assessed as residual activity at 1 uM by Kinomescan method relative to control
[12] = target: Insulin receptor-related protein (Homo sapiens) (UniProt P14616); experiment: Inhibition of wild-type human partial length INSRR (R950 to E1278 residues) expressed in bacterial expression system assessed as residual activity at 1 uM by Kinomescan method relative to control
[13] = target: Tyrosine-protein kinase JAK3 (Homo sapiens) (UniProt P52333); experiment: Inhibition of wild-type human partial length JAK3 JH1 catalytic domain (I781 to S1124 residues) expressed in mammalian expression system assessed as residual activity at 1 uM by Kinomescan method relative to control
[14] = target: Maternal embryonic leucine zipper kinase (Homo sapiens) (UniProt Q14680); experiment: Inhibition of wild-type human full length MELK (M1 to V651 residues) expressed in bacterial expression system assessed as residual activity at 1 uM by Kinomescan method relative to control
[15] = target: Serine/threonine-protein kinase 4 (Homo sapiens) (UniProt Q13043); experiment: Inhibition of wild-type human full length MST1 (M1 to F487 residues) expressed in bacterial expression system assessed as residual activity at 1 uM by Kinomescan method relative to control
[16] = target: Serine/threonine-protein kinase NLK (Homo sapiens) (UniProt Q9UBE8); experiment: Inhibition of wild-type human full length NLK (M13 to E527 residues) expressed in bacterial expression system assessed as residual activity at 1 uM by Kinomescan method relative to control
[17] = target: Platelet-derived growth factor receptor beta (Homo sapiens) (UniProt P09619); experiment: Inhibition of wild-type human partial length PDGFRB (V582 to Y1009 residues) expressed in bacterial expression system assessed as residual activity at 1 uM by Kinomescan method relative to control
[18] = target: Phosphatidylinositol 4,5-bisphosphate 3-kinase catalytic subunit delta isoform (Homo sapiens) (UniProt O00329); experiment: Inhibition of wild-type human partial length PIK3CD (R108 to Q1044 residues) expressed in mammalian expression system assessed as residual activity at 1 uM by Kinomescan method relative to control
[19] = target: Protein-tyrosine kinase 2-beta (Homo sapiens) (UniProt Q14289); experiment: Inhibition of wild-type human full length PYK2 (M1 to E967 residues) expressed in bacterial expression system assessed as residual activity at 1 uM by Kinomescan method relative to control
[20] = target: Serine/threonine-protein kinase RIO3 (Homo sapiens) (UniProt O14730); experiment: Inhibition of wild-type human full length RIOK3 (M1 to E519 residues) expressed in bacterial expression system assessed as residual activity at 1 uM by Kinomescan method relative to control
[21] = target: Proto-oncogene tyrosine-protein kinase ROS (Homo sapiens) (UniProt P08922); experiment: Inhibition of wild-type human partial length ROS1 (A1921 to N2240 residues) expressed in bacterial expression system assessed as residual activity at 1 uM by Kinomescan method relative to control
[22] = target: Serine/threonine-protein kinase SIK1 (Homo sapiens) (UniProt P57059); experiment: Inhibition of wild-type human partial length SIK (M1 to Y304 residues) expressed in bacterial expression system assessed as residual activity at 1 uM by Kinomescan method relative to control
[23] = target: Serine/threonine-protein kinase TAO3 (Homo sapiens) (UniProt Q9H2K8); experiment: Inhibition of wild-type human partial length TAOK3 (M1 to T316 residues) expressed in mammalian expression system assessed as residual activity at 1 uM by Kinomescan method relative to control
[24] = target: TRAF2 and NCK-interacting protein kinase (Homo sapiens) (UniProt Q9UKE5); experiment: Inhibition of wild-type human partial length TNIK (D4 to K311 residues) expressed in bacterial expression system assessed as residual activity at 1 uM by Kinomescan method relative to control
[25] = target: High affinity nerve growth factor receptor (Homo sapiens) (UniProt P04629); experiment: Inhibition of wild-type human partial length TRKA (G475 to G790 residues) expressed in mammalian expression system assessed as residual activity at 1 uM by Kinomescan method relative to control

Sequence of Serine/threonine-protein kinase 4 (Homo sapiens) (Q13043 whole entry, the tested form may be a part): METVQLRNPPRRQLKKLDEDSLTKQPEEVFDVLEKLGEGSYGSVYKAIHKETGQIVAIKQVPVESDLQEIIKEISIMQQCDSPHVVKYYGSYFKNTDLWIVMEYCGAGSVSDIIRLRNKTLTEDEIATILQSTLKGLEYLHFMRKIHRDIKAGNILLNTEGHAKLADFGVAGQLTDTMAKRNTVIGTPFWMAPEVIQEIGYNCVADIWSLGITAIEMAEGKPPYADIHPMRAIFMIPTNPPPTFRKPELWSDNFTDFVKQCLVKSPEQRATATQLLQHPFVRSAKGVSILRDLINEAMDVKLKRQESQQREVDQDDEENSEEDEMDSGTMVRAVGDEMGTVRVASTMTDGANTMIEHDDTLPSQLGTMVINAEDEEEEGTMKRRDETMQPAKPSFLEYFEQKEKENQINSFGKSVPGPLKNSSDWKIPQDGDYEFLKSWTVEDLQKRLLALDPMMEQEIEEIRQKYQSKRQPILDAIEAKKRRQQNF
Sequence of Serine/threonine-protein kinase ICK (Homo sapiens) (Q9UPZ9 whole entry, the tested form may be a part): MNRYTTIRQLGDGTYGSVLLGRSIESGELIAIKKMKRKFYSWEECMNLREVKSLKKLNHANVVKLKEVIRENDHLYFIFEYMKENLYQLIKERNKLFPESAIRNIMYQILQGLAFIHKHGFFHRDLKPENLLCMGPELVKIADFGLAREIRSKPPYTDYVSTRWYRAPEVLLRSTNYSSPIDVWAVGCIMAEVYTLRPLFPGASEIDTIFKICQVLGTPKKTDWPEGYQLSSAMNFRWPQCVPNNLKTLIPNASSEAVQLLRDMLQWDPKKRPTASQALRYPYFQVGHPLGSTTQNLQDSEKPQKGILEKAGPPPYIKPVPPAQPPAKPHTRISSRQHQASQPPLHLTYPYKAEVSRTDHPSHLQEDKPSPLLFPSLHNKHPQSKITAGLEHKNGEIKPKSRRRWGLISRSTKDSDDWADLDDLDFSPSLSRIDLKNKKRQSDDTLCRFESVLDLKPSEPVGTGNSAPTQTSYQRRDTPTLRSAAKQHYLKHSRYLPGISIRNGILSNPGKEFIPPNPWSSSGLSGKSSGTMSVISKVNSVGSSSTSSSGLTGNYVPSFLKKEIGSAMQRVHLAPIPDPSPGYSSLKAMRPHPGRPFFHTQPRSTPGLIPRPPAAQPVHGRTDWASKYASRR
Sequence of Serine/threonine-protein kinase TAO3 (Homo sapiens) (Q9H2K8 whole entry, the tested form may be a part): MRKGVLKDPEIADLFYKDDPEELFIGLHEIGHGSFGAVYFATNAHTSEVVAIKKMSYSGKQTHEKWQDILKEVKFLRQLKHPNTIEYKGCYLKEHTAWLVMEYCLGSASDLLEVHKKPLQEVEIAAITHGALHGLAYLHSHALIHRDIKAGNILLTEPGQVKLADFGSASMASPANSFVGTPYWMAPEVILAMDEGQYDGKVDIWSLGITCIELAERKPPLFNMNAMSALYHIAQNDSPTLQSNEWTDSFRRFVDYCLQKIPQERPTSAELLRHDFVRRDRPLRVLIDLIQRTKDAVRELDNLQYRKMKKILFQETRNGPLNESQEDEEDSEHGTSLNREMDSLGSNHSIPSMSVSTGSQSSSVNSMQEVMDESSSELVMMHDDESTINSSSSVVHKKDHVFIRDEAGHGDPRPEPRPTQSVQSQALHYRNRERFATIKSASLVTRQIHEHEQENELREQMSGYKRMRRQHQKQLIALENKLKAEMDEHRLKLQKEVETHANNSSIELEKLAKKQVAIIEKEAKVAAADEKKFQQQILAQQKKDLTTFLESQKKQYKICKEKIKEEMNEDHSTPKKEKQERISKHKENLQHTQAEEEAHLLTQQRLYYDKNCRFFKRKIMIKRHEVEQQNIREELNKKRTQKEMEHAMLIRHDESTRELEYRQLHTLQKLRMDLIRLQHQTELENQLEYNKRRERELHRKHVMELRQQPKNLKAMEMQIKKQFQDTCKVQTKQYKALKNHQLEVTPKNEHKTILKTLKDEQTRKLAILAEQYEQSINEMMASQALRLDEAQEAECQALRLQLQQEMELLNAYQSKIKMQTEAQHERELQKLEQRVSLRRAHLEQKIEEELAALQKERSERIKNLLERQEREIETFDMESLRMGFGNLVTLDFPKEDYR
Sequence of Platelet-derived growth factor receptor beta (Homo sapiens) (P09619 whole entry, the tested form may be a part, canonical isoform): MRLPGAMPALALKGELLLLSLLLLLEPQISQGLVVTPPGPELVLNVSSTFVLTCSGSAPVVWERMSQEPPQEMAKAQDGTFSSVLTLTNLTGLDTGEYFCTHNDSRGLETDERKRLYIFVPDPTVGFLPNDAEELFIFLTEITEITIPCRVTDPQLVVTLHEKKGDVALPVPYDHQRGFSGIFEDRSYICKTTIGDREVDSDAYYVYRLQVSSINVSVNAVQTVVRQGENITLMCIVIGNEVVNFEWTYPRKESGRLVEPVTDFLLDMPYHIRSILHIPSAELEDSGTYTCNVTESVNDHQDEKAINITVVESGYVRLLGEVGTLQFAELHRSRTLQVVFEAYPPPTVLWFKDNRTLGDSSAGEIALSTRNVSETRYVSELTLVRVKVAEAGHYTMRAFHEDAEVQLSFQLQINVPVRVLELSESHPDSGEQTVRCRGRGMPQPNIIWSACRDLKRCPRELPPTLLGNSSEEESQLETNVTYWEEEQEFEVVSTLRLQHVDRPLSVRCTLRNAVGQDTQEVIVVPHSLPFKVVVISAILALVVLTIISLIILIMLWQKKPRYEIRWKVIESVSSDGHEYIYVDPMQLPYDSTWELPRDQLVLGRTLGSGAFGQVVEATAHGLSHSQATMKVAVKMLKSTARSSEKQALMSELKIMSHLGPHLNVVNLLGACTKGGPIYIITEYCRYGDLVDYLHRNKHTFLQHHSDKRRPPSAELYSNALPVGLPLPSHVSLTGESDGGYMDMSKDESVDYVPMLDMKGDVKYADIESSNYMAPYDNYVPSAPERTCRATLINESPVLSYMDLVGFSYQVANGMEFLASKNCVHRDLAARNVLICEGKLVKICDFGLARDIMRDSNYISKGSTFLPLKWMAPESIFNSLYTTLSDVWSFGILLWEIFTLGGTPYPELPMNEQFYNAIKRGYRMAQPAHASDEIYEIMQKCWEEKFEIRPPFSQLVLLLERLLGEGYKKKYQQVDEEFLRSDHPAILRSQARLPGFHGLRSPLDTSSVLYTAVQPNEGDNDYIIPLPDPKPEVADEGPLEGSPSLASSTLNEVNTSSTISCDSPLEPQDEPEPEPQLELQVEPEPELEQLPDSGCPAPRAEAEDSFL
Sequence of Rhodopsin kinase GRK7 (Homo sapiens) (Q8WTQ7 whole entry, the tested form may be a part): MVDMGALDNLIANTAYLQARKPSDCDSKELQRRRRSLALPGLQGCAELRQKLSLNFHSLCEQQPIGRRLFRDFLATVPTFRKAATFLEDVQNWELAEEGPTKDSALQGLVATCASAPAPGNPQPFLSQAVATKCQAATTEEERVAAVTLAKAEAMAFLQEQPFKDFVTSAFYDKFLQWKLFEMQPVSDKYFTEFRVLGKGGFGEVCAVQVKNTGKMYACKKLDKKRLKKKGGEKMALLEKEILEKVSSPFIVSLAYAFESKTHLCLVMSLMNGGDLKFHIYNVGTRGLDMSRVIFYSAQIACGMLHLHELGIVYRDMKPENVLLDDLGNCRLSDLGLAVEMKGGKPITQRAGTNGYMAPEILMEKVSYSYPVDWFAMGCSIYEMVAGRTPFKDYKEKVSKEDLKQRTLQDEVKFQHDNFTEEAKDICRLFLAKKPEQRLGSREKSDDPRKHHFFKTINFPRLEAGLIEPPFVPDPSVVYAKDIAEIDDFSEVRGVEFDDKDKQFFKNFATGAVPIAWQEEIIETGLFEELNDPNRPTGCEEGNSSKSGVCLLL
Sequence of Dual specificity protein kinase CLK4 (Homo sapiens) (Q9HAZ1 whole entry, looked up, the tested form may be a part): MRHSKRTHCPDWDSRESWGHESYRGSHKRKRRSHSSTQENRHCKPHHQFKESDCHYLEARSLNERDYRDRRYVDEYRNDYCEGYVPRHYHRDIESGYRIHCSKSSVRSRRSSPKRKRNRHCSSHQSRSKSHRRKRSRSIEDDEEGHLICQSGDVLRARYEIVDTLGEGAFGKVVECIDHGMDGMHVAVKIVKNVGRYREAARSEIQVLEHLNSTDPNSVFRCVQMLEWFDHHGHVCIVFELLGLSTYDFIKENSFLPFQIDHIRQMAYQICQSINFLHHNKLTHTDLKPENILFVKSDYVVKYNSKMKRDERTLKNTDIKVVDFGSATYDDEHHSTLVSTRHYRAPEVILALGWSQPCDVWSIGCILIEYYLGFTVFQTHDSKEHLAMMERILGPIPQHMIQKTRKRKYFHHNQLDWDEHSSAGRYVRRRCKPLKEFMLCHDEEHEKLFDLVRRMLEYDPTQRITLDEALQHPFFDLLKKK
Sequence of Tyrosine-protein kinase BTK (Q06187 whole entry, the tested form may be a part): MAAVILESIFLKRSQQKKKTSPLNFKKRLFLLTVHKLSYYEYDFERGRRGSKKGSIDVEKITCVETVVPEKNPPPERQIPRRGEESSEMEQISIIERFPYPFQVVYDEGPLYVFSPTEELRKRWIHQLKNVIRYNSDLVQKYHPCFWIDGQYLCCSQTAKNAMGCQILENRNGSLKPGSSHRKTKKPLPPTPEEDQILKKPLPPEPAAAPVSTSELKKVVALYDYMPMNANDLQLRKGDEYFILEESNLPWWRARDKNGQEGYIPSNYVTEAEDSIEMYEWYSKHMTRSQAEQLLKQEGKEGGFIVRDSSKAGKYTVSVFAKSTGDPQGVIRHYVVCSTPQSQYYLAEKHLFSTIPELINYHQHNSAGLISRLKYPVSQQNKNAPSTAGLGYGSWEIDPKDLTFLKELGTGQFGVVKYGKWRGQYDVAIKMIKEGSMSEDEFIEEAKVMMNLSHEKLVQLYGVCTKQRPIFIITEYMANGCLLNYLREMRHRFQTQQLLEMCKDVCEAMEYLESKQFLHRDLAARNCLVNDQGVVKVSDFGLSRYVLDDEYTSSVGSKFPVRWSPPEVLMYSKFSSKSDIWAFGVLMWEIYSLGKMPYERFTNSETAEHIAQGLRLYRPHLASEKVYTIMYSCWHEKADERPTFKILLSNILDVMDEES

SMILES: C=CC(=O)Nc1cc(Nc2cc(-c3cccc(NC(=O)c4ccc(C(C)(C)C)cc4)c3C)cn(C)c2=O)ccc1C(=O)N1CCOCC1
- IC50 [1]: 7 nM
- Activity [2]: 100%
- Activity [3]: 90%
- Activity [4]: 97%
- Activity [5]: 100%
- Activity [6]: 97%
- Activity [7]: 90%
- Activity [8]: 99%
- Activity [9]: 94%
- Activity [10]: 100%
- Activity [11]: 100%
- Activity [12]: 100%
- Activity [13]: 79%
- Activity [14]: 98%
- Activity [15]: 95%
- Activity [16]: 63%
- Activity [17]: 92%
- Activity [18]: 100%
- Activity [19]: 100%
- Activity [20]: 78%
- Activity [21]: 100%
- Activity [22]: 93%
- Activity [23]: 94%
- Activity [24]: 97%
- Activity [25]: 91%
